Laboratory results from patent US9096593B2, “Compounds and methods for kinase modulation, and indications therefor” (Plexxikon Inc., priority 2009, dated 2015).

Columns and labels:
BCR-KIT/BaF3 cells = BCR-KIT/BaF3 cells (Homo sapiens, UniProt P10721); experiment: BCR-KIT/BaF3 cell proliferation assay (ATPlite); format: cell-based; details: read-out: BCR/BaF3 (IC50 μM) Kit
Method: Compounds are assessed in a variety of cell based assays. For example BCR-FMS/BaF3, BCR-KIT/BaF3, M-NFS-60, M-07e, and BAC1.2F5 cell proliferation assays are used to assess inhibitory activity of Fms or Kit and MV-4-11 cell proliferation assay is used to assess inhibitory activity in Flt-3. Reagent and assay conditions are as follows: • BCR-FMS/BaF3 and BCR-KIT/BaF3 cells: • Maintained in RPMI containing 10% FBS, 1% PenStrep, 1% NEAA, and 1% L-Glutamine, supplemented with 1 mg/mL G418 and 5% WEHI-CM (or recombinant murine IL-3). • Confluent cells are split 1:50 to 1:100 every 3-4 days. • M-NFS-60 cells (ATCC #CRL-1838): • Maintained in RPMI containing 10% FBS, 1% Hepes, 1% NaPyruvate, and 0.45% Glucose, supplemented with 62 ng/mL murine M-CSF. • Confluent cells are split 1:20 every 3-4 days. • M-07e cells (DSMZ #ACC 104): • Maintained in IMDM containing 10% FBS, supplemented with either 200 ng/mL human SCF or […] SCF (R&D Systems 255-SC). • Confluent cells are split 1:5 to 1:10 every 3-4 days. • BAC1.2F5 cells: • Maintained in Alpha-MEM containing 10% Newborn Calf Serum (Invitrogen #26010-074) supplemented with 36 ng/mL murine M-CSF. • Confluent cells are split 1:4 every 3-4 days. • MV-4-11 cells: • Maintained in Iscove's Modified Dulbecco's Medium containing 10% FBS. • Confluent cells are split 1:4 every 3-4 days. On day 1, cells are counted, then centrifuged in a conical tube for 5 minutes at 1000 rpm. The supernatant is removed and cells are re-suspended as follows: • BCR-FMS/BaF3 and BCR-KIT/BaF3: resuspend in growth media+1 mg/mL G418 (without WEHI/IL-3) to 2×10^5 cells/mL. • M-NFS-60: resuspend in growth media +62 ng/mL murine M-CSF to 5×10^5 cells/mL. • M-07e: resuspend in growth media +200 ng/mL human SCF to 5×10^5 cells/mL. • BAC1.2F5: resuspend in growth media +36 ng/mL murine M-CSF to 1.4×10^5 cells/mL. • MV-4-11: resuspend in growth media +10% FBS to 5×10^5 cells/mL. The cells are plated (50 μL) in each well of a 96-well dish (Corning 3610) and incubated at 37° C. in 5% CO2 overnight, cells plated to a final concentration of cells as follows: • BCR-FMS/BaF3 and BCR-KIT/BaF3: 10,000 cells per well. • M-NFS-60: 25,000 cells per well. • M-07e: 25,000 cells per well. • BAC1.2F5: 7,000 cells per well. • MV-4-11: 25,000 cells per well. On day 2, compound at a maximum concentration of 5 mM is serially diluted 1:3 for a total of 8 point titration with DMSO as a control. A 1 μL aliquot of each dilution point is added to 249 μL growth media and 50 μL is added to a well containing cells, providing 10 μM compound for the maximum concentration point. The cells are incubated for 3 days at 37° C. in 5% CO2. On day 5, ATPlite 1 step Luminescence Assay System (Perkin Elmer #6016739) is brought to room temperature along with the cell cultures. ATPlite is added to each well as follows: • BCR-FMS/BaF3 and BCR-KIT/BaF3: 25 μL per well. • M-NFS-60: 25 μL per well. • M-07c: 40 μL per well. • BAC1.2F5: 50 μL per well. • MV-4-11: 40 μL per well. The cells are incubated at room temperature for 10 minutes, then luminescence is read on Safire reader. The measured luminescence correlates directly with cell number, such that the reading as a function of compound concentration is used to determine the IC50 value.

BCR-FMS/BaF3 cells = BCR-FMS/BaF3 cells (Homo sapiens, UniProt P07333); experiment: BCR-FMS/BaF3 cell proliferation assay (ATPlite); format: cell-based
BCR-FMS/BaF3 cells, sequence (P07333 20-972 limits assumed, change not shown): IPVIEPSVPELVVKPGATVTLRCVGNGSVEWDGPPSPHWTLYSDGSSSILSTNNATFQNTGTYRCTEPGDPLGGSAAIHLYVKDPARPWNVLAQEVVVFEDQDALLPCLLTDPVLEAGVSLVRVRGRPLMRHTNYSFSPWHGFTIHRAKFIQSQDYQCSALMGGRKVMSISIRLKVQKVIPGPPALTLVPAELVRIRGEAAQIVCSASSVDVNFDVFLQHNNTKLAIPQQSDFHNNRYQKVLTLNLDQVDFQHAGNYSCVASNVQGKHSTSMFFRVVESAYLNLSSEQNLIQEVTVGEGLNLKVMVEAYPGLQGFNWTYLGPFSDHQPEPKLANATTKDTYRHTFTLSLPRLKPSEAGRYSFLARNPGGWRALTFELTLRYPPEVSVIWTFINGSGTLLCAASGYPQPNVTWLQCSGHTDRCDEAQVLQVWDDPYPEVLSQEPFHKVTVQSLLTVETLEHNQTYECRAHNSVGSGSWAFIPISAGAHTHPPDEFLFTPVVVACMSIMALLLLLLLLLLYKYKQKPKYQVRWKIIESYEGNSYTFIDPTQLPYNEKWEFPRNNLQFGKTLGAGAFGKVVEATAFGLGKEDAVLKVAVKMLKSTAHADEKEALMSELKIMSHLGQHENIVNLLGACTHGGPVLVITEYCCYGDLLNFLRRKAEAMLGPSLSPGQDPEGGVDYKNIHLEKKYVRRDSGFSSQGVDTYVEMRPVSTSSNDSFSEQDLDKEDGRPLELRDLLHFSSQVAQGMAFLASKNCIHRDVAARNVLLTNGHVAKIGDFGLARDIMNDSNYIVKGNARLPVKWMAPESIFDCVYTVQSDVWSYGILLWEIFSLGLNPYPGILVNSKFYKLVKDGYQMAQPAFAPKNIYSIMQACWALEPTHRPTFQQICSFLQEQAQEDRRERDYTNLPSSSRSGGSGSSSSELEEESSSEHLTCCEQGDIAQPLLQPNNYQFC
Method: Compounds are assessed in a variety of cell based assays. For example BCR-FMS/BaF3, BCR-KIT/BaF3, M-NFS-60, M-07e, and BAC1.2F5 cell proliferation assays are used to assess inhibitory activity of Fms or Kit and MV-4-11 cell proliferation assay is used to assess inhibitory activity in Flt-3. […] On day 1, cells are counted, then centrifuged in a conical tube for 5 minutes at 1000 rpm. The supernatant is removed and cells are re-suspended as follows: • BCR-FMS/BaF3 and BCR-KIT/BaF3: resuspend in growth media+1 mg/mL G418 (without WEHI/IL-3) to 2×10^5 cells/mL. • M-NFS-60: resuspend in growth media +62 ng/mL murine M-CSF to 5×10^5 cells/mL. • M-07e: resuspend in growth media +200 ng/mL human SCF to 5×10^5 cells/mL. • BAC1.2F5: resuspend in growth media +36 ng/mL murine M-CSF to 1.4×10^5 cells/mL. • MV-4-11: resuspend in growth media +10% FBS to 5×10^5 cells/mL. […] On day 2, compound at a maximum concentration of 5 mM is serially diluted 1:3 for a total of 8 point titration with DMSO as a control. A 1 μL aliquot of each dilution point is added to 249 μL growth media and 50 μL is added to a well containing cells, providing 10 μM compound for the maximum concentration point. The cells are incubated for 3 days at 37° C. in 5% CO2. […] ATPlite is added to each well as follows: • BCR-FMS/BaF3 and BCR-KIT/BaF3: 25 μL per well. • M-NFS-60: 25 μL per well. • M-07c: 40 μL per well. • BAC1.2F5: 50 μL per well. • MV-4-11: 40 μL per well. The cells are incubated at room temperature for 10 minutes, then luminescence is read on Safire reader. The measured luminescence correlates directly with cell number, such that the reading as a function of compound concentration is used to determine the IC50 value.

Fms kinase = Fms kinase (Homo sapiens (Human), UniProt P07333); experiment: Fms kinase biochemical activity assay (AlphaScreen, biotin-(E4Y)10 phosphorylation); details: read-out: Biochemical activity (IC50 μM) Fms
Fms kinase, sequence (P07333 20-972): as the sequence (P07333 20-972 limits assumed, change not shown) above
Method: In one assay the biochemical activity IC50 values are determined with respect to inhibition of Fms kinase activity, where inhibition of phosphorylation of a peptide substrate is measured as a function of compound concentration. Compounds to be tested, dissolved in DMSO (1 μL), are added to a white 384-well plate (Costar #3705). Working stocks of Fms kinase (Invitrogen #PV3249), biotin-(E4Y)10 substrate (Upstate Biotech, Cat#12-440), and ATP (Sigma, Cat#A-3377) are prepared in 25 mM Hepes pH 7.5, 0.5 mM MgCl2, 2 mM MnCl2, 2 mM DTT, 0.01% BSA, and 0.01% Tween-20. All components are added to the 384-well plate for a final concentration of 1 ng/well Fms, 30 nM biotin-(E4Y)10 (Upstate Biotechnology) and 100 μM ATP in a volume of 20 μL. Each sample is at 5% DMSO. The plate is then incubated for 20 minutes at 30° C. Just before use, working stocks of donor and acceptor beads from the AlphaScreen PY20 Detection Kit (PerkinElmer, Cat#676601M) are prepared in 25 mM Hepes pH 7.5, pH 7.4, 100 mM EDTA, 0.01% BSA. To stop the reaction, the plate is uncovered in the dark and 5 μL of Donor Beads solution (Streptavidin beads) is added to each well. The plate is incubated at room temperature for 20 minutes. Five microliters of Acceptor Beads solution (PY20 coated beads) are then added to each well. The final concentration of each bead is 10 μg/mL. The plates are incubated at room temperature for 60 minutes. Fluorescence signal is recorded on the Envision reader. […] The signal vs. compound concentration is used to determine the IC50.

[1] = Turbidity assay of relative solubility in aqueous buffers; format: physicochemical; details: pH 4.5 (SIF)
Method: As an indication of relative solubility, the turbidity of compounds in aqueous solutions is assessed. To assess possible compound properties in different physiological compartments, such as stomach, intestine, and blood, a series of aqueous buffers with varying pH is used. Thus each compound is diluted into four different physiologically relevant buffers and solution turbidity is measured by spectrophotometry.
Compounds are dissolved at a concentration of 25 mM in dimethyl sulfoxide, then serially diluted 1:1 into a 96 well plate, diluting 10 times in pure dimethyl sulfoxide, with the final well of each row a dimethyl sulfoxide blank. In an assay plate, 99 μL of appropriate buffer is added to each well, and 1 μL of each sample dilution is added to the buffer, achieving a range of final total concentrations in aqueous solutions having different pH. The buffers used are Simulated Gastric Fluid (SGF-pH 1.5) 0.5M NaCl, pH 1.5; Simulated Intestinal fluid (SIF-pH 4.5 and pH 6.8) 0.05M NaH2PO4, pH 4.5 and 6.8; and Hepes Buffer (HEPES-pH 7.4) 10 mM HEPES, 150 mM NaCl, pH 7.4. Control compounds pyrene, estriol and propranolol HCl are also assessed. Plates are spun and then mixed for 1 minute, and the absorbance is read using a Tecan Safire II to read wavelengths in the visible range (490, 535, and 650 nm) at four locations per well, reflecting the degree of turbidity present. The average optical density for each wavelength in each well is graphed vs. compound concentration, and the concentration at which the curve crosses a threshold O.D. of 0.01 for each wavelength is reported as the endpoint turbidity assay result. The average of the three wavelengths is used to compare turbidity of compounds. Compounds are considered to have low solubility if the threshold concentration is <31.3 μM, moderate solubility if the threshold concentration is 31.3 μM to 250 μM, and high solubility if the threshold concentration is >250 μM.

BCR-KIT/BaF3 cells, sequence (P10721 26-976 limits assumed, change not shown): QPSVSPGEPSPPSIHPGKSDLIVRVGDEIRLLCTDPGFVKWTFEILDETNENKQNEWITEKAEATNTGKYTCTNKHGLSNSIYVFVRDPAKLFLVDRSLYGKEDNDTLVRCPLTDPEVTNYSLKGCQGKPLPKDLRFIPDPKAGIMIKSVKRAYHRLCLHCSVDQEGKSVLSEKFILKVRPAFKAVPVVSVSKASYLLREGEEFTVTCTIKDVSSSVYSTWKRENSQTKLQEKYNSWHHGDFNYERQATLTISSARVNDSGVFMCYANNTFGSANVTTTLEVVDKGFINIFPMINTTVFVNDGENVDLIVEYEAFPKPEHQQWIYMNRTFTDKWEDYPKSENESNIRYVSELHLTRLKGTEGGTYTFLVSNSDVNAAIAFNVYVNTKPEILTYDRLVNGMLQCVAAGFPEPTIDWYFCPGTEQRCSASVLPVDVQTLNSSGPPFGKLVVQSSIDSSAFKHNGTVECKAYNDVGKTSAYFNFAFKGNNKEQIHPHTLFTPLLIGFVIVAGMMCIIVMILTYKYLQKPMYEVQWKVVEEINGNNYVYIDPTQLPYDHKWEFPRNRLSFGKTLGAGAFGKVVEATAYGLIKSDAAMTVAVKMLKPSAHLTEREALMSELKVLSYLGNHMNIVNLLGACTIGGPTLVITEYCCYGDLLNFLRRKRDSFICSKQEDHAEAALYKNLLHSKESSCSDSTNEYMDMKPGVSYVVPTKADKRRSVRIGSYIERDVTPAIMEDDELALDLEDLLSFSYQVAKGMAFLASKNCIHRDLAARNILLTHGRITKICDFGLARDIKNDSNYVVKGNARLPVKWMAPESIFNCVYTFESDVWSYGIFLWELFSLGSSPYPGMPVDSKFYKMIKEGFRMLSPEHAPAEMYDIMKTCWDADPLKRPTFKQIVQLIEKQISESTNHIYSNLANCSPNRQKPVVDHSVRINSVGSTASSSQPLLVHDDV

Row | IC50 (BCR-KIT/BaF3 cells) [µM] | IC50 (BCR-FMS/BaF3 cells; BCR-FMS/BaF3 cells, read-out: BCR/BaF3 (IC50 μM) Fms) [µM] | BCR/BaF3 selectivity (Kit IC50/Fms IC50) (BCR-FMS/BaF3 cells; Kit IC50/Fms IC50, BCR-KIT/BaF3 vs BCR-FMS/BaF3 cells) | IC50 (Fms kinase) [µM] | SMILES | turbidity threshold (L, M, H) 4.5 [1]
1 | > 0.1 | < 0.1 | >20 | < 0.1 | COc1ccc(CNc2ccc(Cc3c[nH]c4ncc(Cl)cc34)cn2)c(OC)n1 [Compound P-1496, [5-(5-Chloro-1H-pyrrolo[2,3-b]pyridin-3-ylmethyl)-pyridin-2-yl]-(2,6-dimethoxy-pyridin-3-ylmethyl)-amine] | 
2 |  |  |  |  | COc1ncc(F)cc1CNc1ccc(Cc2c[nH]c3ncc(C#N)cc23)c(F)n1 [Compound P-2193, 3-{2-Fluoro-6-[(5-fluoro-2-methoxy-pyridin-3-ylmethyl)-amino]-pyridin-3-ylmethyl}-1H-pyrrolo[2,3-b]pyridine-5-carbonitrile] | L (low solubility if the threshold concentration is <31.3 μM)
